According to US20220289765A1, “CRYSTAL OF CARCINOGENIC FUSED KINASE INHIBITOR AND APPLICATIONS THEREOF” (Simcere Pharmaceutical Co., Ltd., priority 2019, published 2022):
pIC50: −log10 of the molar value.

Columns and labels:
BaF3 ETV6-NTRK3-G623R = assay: Cell proliferation inhibition (CellTiter-Glo, 72 h); type: cell-based; details: Mus musculus, read-out: Half Inhibitory Concentrations of Cells IC50, BaF3 ETV6-NTRK3-G623R
[1] = system: Ba/F3 SLC34A2-ROS1-G2032R; assay: as above; type: cell-based; details: Mus musculus, BaF3, read-out: Half Inhibitory Concentrations of Cells IC50, Ba/F3 SLC34A2-ROS1-G2032R
ALK = target: T1, ALK (Homo sapiens, UniProt Q9UM73); assay: Kinase inhibitory activity (33P-ATP filtration-binding, Reaction Biology Corp.); type: biochemical; details: read-out: Half Inhibitory Concentrations of Kinases IC50, ALK
T1 construct: purchased Reaction Biology Corp
Method: The inhibitory activity tests of compounds against kinases such as TrkA, TrkC, ALK, Ros1 were completed in Reaction Biology Corp. Certain concentrations of substrate, cofactors, kinases and test compounds (10 doses, 3-fold serial dilutions, 2% DMSO final concentration) were sequentially added to the reaction buffer (20 mM Hepes (pH 7.5), 10 mM MgCl2, 1 mM EGTA, 0.02% Brij35, 0.02 mg/mL BSA, 0.1 mM Na3VO4, 2 mM DTT, 1% DMSO), and mixed well. The resulting mixture was incubated at room temperature for 20 minutes, and a certain concentration of 33P-ATP was added to the reaction mixture to initiate the reaction, followed by incubation at room temperature for 120 minutes. Finally, the radioactivity of the reactants was detected by a filtration-binding method. The final kinase activity was expressed by the ratio of the remaining kinase activity in the test sample to the kinase activity of the DMSO control group. The dose-effect curve was fitted by GraphPad software and the IC50 values were calculated.

Ba/F3 SLC34A2-ROS1-WT = assay: Cell proliferation inhibition (CellTiter-Glo, 72 h); type: cell-based; details: Mus musculus, BaF3, read-out: Half Inhibitory Concentrations of Cells IC50, Ba/F3 SLC34A2-ROS1-WT
[2] = system: Ba/F3 LMNA-NTRK1-WT stable transformant cell line; assay: as above; type: cell-based; details: Mus musculus, BaF3, read-out: Half Inhibitory Concentrations of Cells IC50, Ba/F3 LMNA-NTRK1-WT
Method: Adenosine Tri-Phosphate (ATP) is an energy carrier shared by various life activities in nature and is the smallest unit of energy storage and transfer. In CellTiter-Glo™ Live Cell Detection Kit, luciferase was used as a detection substance, and it required the involvement of ATP during luminescence. CellTiter-Glo™ reagent was added to the cell culture medium to measure a luminescence value, and the light signal was proportional to the amount of ATP in the system, and ATP was positively correlated to the number of viable cells. Therefore, by detecting the ATP content using the CellTiter-Glo Kit, cell proliferation can be detected. In this test, the cell line was Ba/F3 LMNA-NTRK1-WT stable transformant cell line, and the number of cells was 5000/well.
• a) Cells in the logarithmic growth phase were harvested and counted by using a […]. Cell viability was detected by trypan blue exclusion assay to ensure that the cell viability was above 90%. • b) The cell concentration was adjusted, and 90 μL cell suspension was added to a 96-well plate, respectively. • c) Cells in the 96-well plate were incubated overnight at 37° C., 5% CO2 and 95% humidity. […]
The data were analyzed using GraphPad Prism 5.0 software, and were fitted to obtain a dose-effect curve using a non-linear S-curve regression, and the IC50 values were calculated therefrom.

Ba/F3 LMNA-NTRK1-G595R = assay: as above; type: cell-based; details: Mus musculus, BaF3, read-out: Half Inhibitory Concentrations of Cells IC50, Ba/F3 LMNA-NTRK1-G595R

T1 sequence (Q9UM73 19-1620): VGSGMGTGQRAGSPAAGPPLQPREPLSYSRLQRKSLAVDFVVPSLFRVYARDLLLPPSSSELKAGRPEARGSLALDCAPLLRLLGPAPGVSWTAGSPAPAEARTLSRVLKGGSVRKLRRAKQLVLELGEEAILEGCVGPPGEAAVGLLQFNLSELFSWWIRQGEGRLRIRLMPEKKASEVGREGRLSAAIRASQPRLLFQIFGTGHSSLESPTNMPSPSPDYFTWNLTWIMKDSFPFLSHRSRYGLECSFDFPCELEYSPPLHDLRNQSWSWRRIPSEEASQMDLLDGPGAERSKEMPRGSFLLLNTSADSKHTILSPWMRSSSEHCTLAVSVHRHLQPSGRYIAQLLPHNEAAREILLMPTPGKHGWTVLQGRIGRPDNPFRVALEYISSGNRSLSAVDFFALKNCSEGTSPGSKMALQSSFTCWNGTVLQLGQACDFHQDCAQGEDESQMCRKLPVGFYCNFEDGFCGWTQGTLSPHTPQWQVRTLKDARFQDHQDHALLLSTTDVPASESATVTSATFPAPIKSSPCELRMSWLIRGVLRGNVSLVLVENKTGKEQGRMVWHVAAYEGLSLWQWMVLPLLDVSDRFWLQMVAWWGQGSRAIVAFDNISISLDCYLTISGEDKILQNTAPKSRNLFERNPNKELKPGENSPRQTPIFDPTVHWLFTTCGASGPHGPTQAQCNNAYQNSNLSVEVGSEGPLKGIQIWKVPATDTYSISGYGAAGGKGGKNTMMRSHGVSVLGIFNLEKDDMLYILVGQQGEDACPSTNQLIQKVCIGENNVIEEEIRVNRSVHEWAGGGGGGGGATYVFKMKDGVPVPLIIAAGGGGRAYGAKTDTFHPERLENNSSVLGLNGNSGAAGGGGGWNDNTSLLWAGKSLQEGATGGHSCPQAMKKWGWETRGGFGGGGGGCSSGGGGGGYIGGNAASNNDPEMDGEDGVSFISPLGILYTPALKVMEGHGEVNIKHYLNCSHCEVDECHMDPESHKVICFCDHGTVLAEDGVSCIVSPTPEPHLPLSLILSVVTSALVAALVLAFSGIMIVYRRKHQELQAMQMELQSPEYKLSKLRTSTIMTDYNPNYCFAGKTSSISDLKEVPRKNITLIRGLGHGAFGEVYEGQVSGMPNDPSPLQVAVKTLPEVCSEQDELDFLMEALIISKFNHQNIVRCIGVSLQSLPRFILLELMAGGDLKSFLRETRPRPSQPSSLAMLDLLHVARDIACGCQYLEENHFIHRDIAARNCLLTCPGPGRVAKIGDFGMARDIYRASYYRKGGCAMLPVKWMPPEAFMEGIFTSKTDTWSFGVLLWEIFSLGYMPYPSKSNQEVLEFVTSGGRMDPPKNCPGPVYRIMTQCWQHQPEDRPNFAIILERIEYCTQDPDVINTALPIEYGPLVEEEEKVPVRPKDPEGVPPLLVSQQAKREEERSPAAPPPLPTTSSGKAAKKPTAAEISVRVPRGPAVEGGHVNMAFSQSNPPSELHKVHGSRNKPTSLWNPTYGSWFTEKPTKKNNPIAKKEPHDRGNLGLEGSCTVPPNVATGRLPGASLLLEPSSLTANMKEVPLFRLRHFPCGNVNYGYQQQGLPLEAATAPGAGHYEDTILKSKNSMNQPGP

pIC50 (BaF3 ETV6-NTRK3-G623R): 8.47
pIC50 [1]: 7.79
pIC50 (ALK): 7.89
pIC50 (Ba/F3 SLC34A2-ROS1-WT): 8.60
pIC50 [2]: 8.90
pIC50 (Ba/F3 LMNA-NTRK1-G595R): 8.21
SMILES: O=C1NC2(CC2)COc2ncc(F)cc2[C@H]2CCON2c2ccn3ncc1c3n2 [Compound of Formula (I)]
